From patent US8466164B2
Values belong to the molecule of their own block, whether it stands above or below them.

Tests used:
[1] = system: Src-Y416 phosphorylation in SaOS-2; assay: immunoblotting of phospho-Src-Y416 in SaOS-2; type: cell-based, human; conditions: SaOS-2, compounds at their IC50, 3 h
Protocol: Compounds were used at their corresponding IC50. Cells were treated for 3 h prior to their lysis. A) Specific c-Src phosphorylation was evaluated when whole-cell lysates were immunoprobed with anti-nonphospho-Src-Y416 and anti-phospho-Src-Y416 antibodies. B) Graph reports the optical density values relative to immunoreactive bands of phospho-Src-Y416. […] C) Graphical representation of SI-83 (magenta) into the ATP binding pocket of Src. The solvent accessible surface of residues is depicted (blue), while several amino acids, responsible for the major hydrophobic contacts with the binding site, are also shown (cyan).
For Phospho-SrcY416 detection, cells were lysed in ice-cold 0.1% SDS containing a cocktail of protease inhibitors and 1 mM sodium orthovanadate (Sigma-Aldrich). […] All antibodies employed were from Cell Signaling Technology ([…], USA). Proteins were probed with primary antibodies o.n. at 4° C., followed by secondary antibodies for 1 h at room temperature. Detection was obtained by ImmunoStar HRP™ (BioRad). Band areas were detected using ImageScanner™ (Amersham Bioscience, Little Chalfont, GB) and bands' optical densities were analysed by Image Master software (Amersham Bioscience). Band optical densities of Phospho-SrcY416 were normalized against those of total Src as an internal control.

[2] = system: primary human osteoblasts; assay: flow cytometric apoptosis analysis on primary osteoblasts; conditions: for reduction of pro-apoptotic effect on osteoblasts respecting to SaOS-2: at IC50 (determined on SaOS-2), 48 h
SaOS-2 cells [3] = assay: MTT cell viability assay on SaOS-2; conditions: for CV (%) after 24 h (cellular viability with respect to control): 24 h treatment; for CV (%) after 24 h (cellular viability with respect to control) / CV (%) after 48 h (cellular viability with respect to control): control = 100%, mean ± SD; for CV (%) after 48 h (cellular viability with respect to control): 48 h treatment, 25 μM; for IC50: read-out: IC50 on SaOS-2 cell viability, MTT, 1-100 μM, 48 h
SaOS-2 cells [4] = assay: flow cytometric cell cycle/apoptosis analysis on SaOS-2; conditions: 48 h, 3 μM to 100 μM
normal human osteoblasts = assay: nodule formation and mineralization (alizarin red S); conditions: IC5, IC20, IC50 (SaOS-2); for tolerance of treatment by osteoblasts: three weeks
SaOS-2 cells [5] = assay: TUNEL assay on SaOS-2; type: cell-based, human; conditions: 48 h treatment, 12.5 μM
[6] = system: primary human osteoblasts; assay: MTT cell viability assay on primary human osteoblasts; conditions: 48 h; for reduction of osteoblast growth (inhibitory activity): 25 μM
[7] = system: phosphorylation of Bcr-Abl (Tyr245), Src (Tyr416) and Lyn (Tyr507); assay: western blot of kinase phosphorylation in Ba/F3 cells; type: cell-based; conditions: 5 μM, up to 24th h of exposure, Imatinib-sensitive and resistant contexts
Protocol: The inhibitory effects of S29 toward the phosphorylation of Bcr-Abl (Tyr245), Src (Tyr416) and Lyn (Tyr507) were assessed using western blot analysis. Whole cell lysates were obtained from 1×10^7 cells (either untreated or following 24 h and 48 h exposure to 5 μM S29) in lysis buffer.
Protein lysates from whole cells were incubated overnight with the primary antibodies (anti-Abl phosphorylated at Tyr245, Cell Signaling; anti-Src phosphorylated at Tyr416, Cell Signaling; anti-Lyn phosphorylated at Tyr507, Cell Signaling; anti-Lyn, Biosource; anti-Beta-actin, Santa Cruz Biotechnology) and then 1 h at rt with the secondary antibodies (Amersham). Beta actin was used for protein loading control. Signal intensities from 3 repeated blots were quantified by a GS-700 Imagining densitometer (BioRad) equipped with a dedicated software (Molecular Analyst).

[8] = system: Ba/F3 cells expressing mutated Bcr-Abl / IM-resistant cell lines; assay: Annexin V/PI apoptotic assay on Ba/F3 cells; type: cell-based; conditions: 5 μM
Protocol: Apoptotic assay was performed on 1×10^6 cells and apoptotic cells were recognized by cytofluorimetric analysis of fluorescinated Annexin V (Roche) and PI uptake.

recombinant human Src = recombinant human Src (Homo sapiens, UniProt P12931); assay: cell-free Src enzymatic assay; type: biochemical; conditions: calculated from ID50; triplicate, mean values; read-out: Ki toward recombinant human Src
Sequence of recombinant human Src (P12931 whole entry): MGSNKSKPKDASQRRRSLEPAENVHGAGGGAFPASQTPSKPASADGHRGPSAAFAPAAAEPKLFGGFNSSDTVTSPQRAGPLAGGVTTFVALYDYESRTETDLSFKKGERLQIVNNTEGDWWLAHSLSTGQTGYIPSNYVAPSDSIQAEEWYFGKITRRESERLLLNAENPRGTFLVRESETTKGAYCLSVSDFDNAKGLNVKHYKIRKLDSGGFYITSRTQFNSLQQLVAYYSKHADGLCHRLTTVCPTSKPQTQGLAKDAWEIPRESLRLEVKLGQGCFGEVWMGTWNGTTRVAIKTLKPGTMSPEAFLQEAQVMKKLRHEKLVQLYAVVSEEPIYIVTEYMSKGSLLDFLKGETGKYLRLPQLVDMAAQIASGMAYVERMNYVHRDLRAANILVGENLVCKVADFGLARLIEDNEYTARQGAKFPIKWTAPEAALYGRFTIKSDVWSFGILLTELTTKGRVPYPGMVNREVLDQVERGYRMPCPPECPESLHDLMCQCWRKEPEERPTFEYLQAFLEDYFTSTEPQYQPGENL

TE-85 = assay: MTT cell viability assay on TE-85; type: cell-based, human; conditions: 48 h
MG63 = assay: MTT cell viability assay on MG63; type: cell-based, human; conditions: 48 h
MNNG cells = assay: MTT cell viability assay on MNNG; type: cell-based, human; conditions: 48 h
[9] = system: human primary osteoblasts; assay: Hoechst staining of primary osteoblasts; conditions: 25 μM
in vitro = conditions: male, human, primary human osteoblasts
SaOS-2 xenograft = SaOS-2 xenograft in nude mice; type: in vivo, CD 1 nude mice
Protocol: In order to evaluate the effect of SI-83 in a preclinical experimental model of osteosarcoma the authors injected s.c. SaOS-2 cells together with Matrigel in nude mice. […] The authors divided mice in three groups containing each 4 mice: mice receiving vehicle (control); mice receiving 50 mg/kg SI-83; mice receiving 100 mg/kg SI-83. The administration of SI-83 determined at endpoint a reduction in xenograft growth respect to control measured as weight reduction (FIG. 6B1). At the dose of 100 mg/kg, SI-83 determined a significant reduction (P<0.01) in tumour weight of about 40% respect to control tumours. Also the administration of 50 mg/kg SI-83 determined a smaller (about 15%) but significant reduction (p<0.05) in tumour volume respect to control (FIG. 6B1). Xenograft tissues were processed for histologic evaluation of phospho-Src expression (FIG. 6B3). Tumour cells in the control group expressed detectable levels of phospho-Src.
CD 1 nude mice (Charles River, Milan, Italy) were maintained under the guidelines established by the authors' Institution (University of L'Aquila, Medical School and Science and Technology School Board Regulations, complying with the Italian government regulation n.116 Jan. 27, 1992 for the use of laboratory animals). Before tumour cells implantation, mice were anesthesized with a mixture of ketamine (25 mg/mL)/xylazine (5 mg/mL). Xenografts were obtained by injecting s.c. 1×10^6 SaOS-2 cells in 100 μL of 12 mg/ml Matrigel (Becton Dickinson). Mice received daily the drug by per os administration at the doses indicated. Tumour growth was monitored daily and at the endpoint, after 26 days, the tumors were excided, weighted and processed for histology. Briefly tumors were fixed in 4% formaldehyde in 0.1 M phosphate buffer, pH 7.2 and embedded in paraffin. Slide-mounted tissue sections (4 μm thick) were deparaffinized in xylene and hydrated serially in 100, 95, and 80% ethanol. Endogenous peroxidases were quenched in 3% H2O2 in PBS for 1 h and then slides were incubated with anti human Src [pY416] phosphospecific antibody (Biosource, Camarillo, Calif., USA) for 1 h at room temperature.

mouse osteoclasts = assay: osteoclast bone resorption assay; type: cell-based
From the text: It is very important to note that there is a significant difference in bone resorption for the control (DMSO) in the two experiments reported in FIG. 4. […] The method used to measure bone resorption is based on the growth in vitro of osteoclasts that then resorb bone. However, this cell-based assay is usually characterized by a significant variability, mainly due to the fact that the basic amount of bone resorption can vary among replicates. Although such a limitation, this assay is widely recognized as the gold standard to assess the ability of compounds to inhibit bone resorption by osteoclasts.^53

U-20S = assay: MTT cell viability assay on U-20S; type: cell-based, human; conditions: 48 h

SMILES: CC(C)(C)n1nc(-c2ccc(Cl)cc2)c2c(N)ncnc21 [PP2, reference compound]
- inhibition of phosphorylation of Src at Y416 [1]: 50%
- reduction of pro-apoptotic effect on osteoblasts respecting to SaOS-2 [2]: 15%
- concentration at which 83% inhibition of cell viability is obtained (SaOS-2 cells [3]; SaOS-2, MTT): higher than 50 μM
- CV (%) after 24 h (cellular viability with respect to control) (SaOS-2 cells [3]; SaOS-2, MTT): 36.8 ± 1.7%
- CV (%) after 48 h (cellular viability with respect to control) (SaOS-2 cells [3]; SaOS-2, MTT): 36.4 ± 1.6%
- IC50 (SaOS-2 cells [3]): 8.07 µM
- cell cycle progression (SaOS-2 cells [4]): stop cell cycle progression in G0 and G1 phases in a dose-dependent manner
- tolerance of treatment by osteoblasts (normal human osteoblasts): did not tolerate drug treatment
- percentage of Ca2+ inside calcification nodules (normal human osteoblasts; twice a week, 1-3 weeks): always lower than control
- pro-apoptotic effect (TUNEL) (SaOS-2 cells [5]): induced apoptosis
- reduction of osteoblast growth (inhibitory activity) [6]: 50%

- Ki (recombinant human Src): 0.5 µM
SMILES: Fc1ccc(CNc2ncnc3c2cnn3CC(Cl)c2ccc(Cl)cc2)cc1 (centres unmarked) [S-29]
- Bcr-Abl and Lyn-Src kinase phosphorylation [7]: Complementary abrogation
- apoptosis induction ([8]; IM-resistant cell lines additioned with IL-3, after 24 h of exposure): apoptosis occurred
- apoptosis induction ([8]; mutated cell lines, after 48 h treatment): induced apoptotic death

- Ki (recombinant human Src): 0.6 µM
SMILES: CSc1nc(Nc2cccc(Cl)c2)c2cnn(CC(Cl)c3ccccc3)c2n1 (centres unmarked) [SI-83]
- inhibition of phosphorylation of Src at Y416 [1]: 55%
- reduction of pro-apoptotic effect on osteoblasts respecting to SaOS-2 [2]: 79%
- apoptosis induced in osteoblasts respecting to PP2 ([2]; at respective IC50, time course 24, 48, 96 h): half of apoptosis
- response of cell viability (TE-85): less susceptible
- response of cell viability (MG63): less susceptible
- response of cell viability compared with SaOS-2 (MNNG cells): even more responsive than SaOS-2
- CV (%) after 24 h (cellular viability with respect to control) (SaOS-2 cells [3]; SaOS-2, MTT): 17.1 ± 1.3%
- CV (%) after 48 h (cellular viability with respect to control) (SaOS-2 cells [3]; SaOS-2, MTT): 15.1 ± 0.7%
- IC50 (SaOS-2 cells [3]): 12.6 µM
- cell morphology / DNA damage (Hoechst) [9]: did not alter cell morphology or cause DNA damage
- viability at 48 h, 25 µM (in vitro): ~80%
- tolerance of treatment by osteoblasts (normal human osteoblasts): better tolerated
- reduction in tumour volume respect to control (SaOS-2 xenograft; 50 mg/kg daily per os, endpoint day 26, p<0.05): about 15%
- reduction in tumour weight respect to control (SaOS-2 xenograft; 100 mg/kg daily per os, endpoint day 26, P<0.01): about 40%
- signs of distress or loss of weight in mice (SaOS-2 xenograft; daily administration): did not determine any appreciable sign of distress or loss of weight
- phospho-Src staining of tumour tissues (SaOS-2 xenograft; treated groups, immunohistology Src [pY416]): faint or null staining
- bone resorption (mouse osteoclasts; 10 and 1 μM): abrogate bone resorption
- percent inhibition of bone resorption (mouse osteoclasts; reduced test dose (up to 1 nM)): lower but significant
- pro-apoptotic effect (TUNEL) (SaOS-2 cells [5]): strongest pro-apoptotic effect
- osteoblast viability ([6]; 12.5 μM): not affected at all
- reduction of osteoblast growth (inhibitory activity) [6]: 20%
- response of cell viability (U-20S): less susceptible
